Here are results for four molecules from patent US7691624B2, “Cancer cell detecting devices” (Academia Sinica, priority 2003, dated 2010).

For one series, the system named is Hum24 quadruplex. The experiment in a line: Temperature-dependent CD analysis. The series is classed as binding, human. An excerpt: Eight DNA quadruplexes and their complexes with compound 2 were subjected to CD analysis. CD spectra were averaged 10 scans on a Jasco J-715 spectropolarimeter with a 2 nm bandwidth. The scan speed was 50 nm/min and the step resolution was 0.2 nm.
Further, Hum24 and its complexes with compounds 2, 4, 6, and 8 were subjected to temperature-dependent CD analysis.

The next series concerns DNA. The experiment in a line: Fluorescence analysis in the presence of a DNA. The series is classed as binding. Particulars: λex≈430 nm; compound 2 with eleven DNAs, compound 4 with Hum24. Here is the method:
(§1) Compound 2 was mixed with eleven DNAs and subjected to fluorescence analysis at λex≈430 nm, using a Hitachi F4010 spectrofluorimeter with a 2 nm bandwidth in a 1-cm cell. Fluorescence analysis was also carried out for compound 4 in the presence of Hum24. […] Further, the fluorescence peaks for a complex of compound 2 and a DNA duplex and a complex of compound 2 and a DNA quadruplex were at ˜550 nm and ˜575 nm, respectively.

The nature of series [1]: Fluorescence analysis in aqueous solution. The series is classed as physicochemical. Particulars: λex≈430 nm, no DNA. The procedure:
as §1

Another series has as its system MRC-5 normal cells. The experiment in a line: Fluorescence of stained cells in eppendorf under LED, recorded by camera. The series is classed as cell-based, human. Particulars: for Numbers of cells required to distinguish cancer cells and normal cells: Normal cells (M) MRC-5. The procedure:
(§2) Human lung CL1-0 cancer cells or MRC-5 normal cells were incubated with 0.5 μM of Compound 2 and acridine orange (AO). After incubation in standard culture medium for 1 hour, the non-fixed cells were removed by washing the culture three times with phosphate buffered saline (PBS). The fixed cells were collected in an eppendorf by trypsinization. The eppendorf was centrifuged and then illuminated by an light emitting diode (LED) emitting excitation light with a center wavelength at 470 nm. A conventional digital camera was used to record the fluorescence. Table 1 summarizes the numbers of cells required to distinguish cancer cells from normal cells based on fluorescence emission of Compound 2 and AO recorded by a camera under different experimental conditions. Specifically, Compound 2 and AO were incubated with four different cells in eppendorf, i.e., MRC-5 normal cells, primary fibroblast, CL1-0 cancer cells, and HeLa cancer cells.

Series [2] deals with CL1-0 cancer cells. Described as above. The series is classed as cell-based, human. Particulars: for Numbers of cells required to distinguish cancer cells and normal cells: Cancer cells (C) CL1-0. Here is the method: as §2
Series [3] has as its system CL1-0 cancer cells. The experiment in a line: Stained cells spread onto cover slip, fluorescent cells counted. The series is classed as cell-based. Conditions: 0.02 μM AO, 5 minutes, cover slip, LED. The procedure: Further, the role of the ratio of the cells stained by Compound 2/AO in cancer diagnosis was studied. Specifically, CL1-0 cancer cells, NIH3T3 normal cells, and their 1:10 mixture were respectively stained with 0.02 μM AO and 1.5 μM Compound 2 for 5 minutes in eppendorfs. Each sample was then taken from the eppendorf and spread onto a cover slip. Fluorescence emissions were recorded by a color camera upon an LED illumination. […] A statistical histogram of the ratio of the cell stained with Compound 2/AO to the ratio of the CL1-0 cells to the sum of NIH3T3 and CL1-0 cells was plotted. Each spot on the histogram represented an average of 5-10 measurements from a single sample.

The subject of another series is HeLa cancer cells. Briefly: Fluorescence of stained cells in eppendorf under LED, recorded by camera. The series is classed as cell-based. Particulars: Cancer cells (H) HeLa. Here is the method: as §2
A further series concerns primary fibroblast. The series is described as above. The series is classed as cell-based. Conditions: Normal cells (F) primary fibroblast. Here is the method:
as §2

Consider `C[n+]1ccc(C=Nc2ccc3[nH]c4ccc(N=Cc5cc[n+](C)cc5)cc4c3c2)cc1.[I-].[I-]` [Compound 8, N,N′-bis-((1-methylpyridinium-4-yl)methylidene)-9H-carbazole-3,6-diamine diiodide], for which the “melting temperature of Hum24 quadruplex in the presence of compound” value (shortened to “melting temperature of Hum24 quadruplex”) in the series on Hum24 quadruplex was “increased”.

For `C[n+]1ccccc1C=Cc1ccc2[nH]c3ccc(C=Cc4cccc[n+]4C)cc3c2c1.[I-].[I-]` [Compound 4, 3,6-bis-(2-(1-methylpyridinium-2-yl)-vinyl)-9H-carbazole diiodide], the “increase of fluorescence intensity in the presence of a DNA” value in the series with DNA is “two orders of magnitude”. Also, the “fluorescence in an aqueous solution” value in series [1] was “weak”. Also, the “melting temperature of Hum24 quadruplex” value in the series on Hum24 quadruplex was “increased”.

In the case of `C[n+]1ccnc(C=Cc2ccc3[nH]c4ccc(C=Cc5c[n+](C)ccn5)cc4c3c2)c1.[I-].[I-]` [Compound 6, 3,6-bis-(2-(4-methylpyrazin-4-ium-2-yl)-vinyl)-9H-carbazole diiodide], the “melting temperature of Hum24 quadruplex” value in the series with Hum24 quadruplex is “increased”.

Regarding `CN(C)c1ccc2cc3ccc(N(C)C)cc3nc2c1` [AO, acridine orange, reference compound], the “fluorescence emission in eppendorf” value in the series with MRC-5 normal cells (0.5 μM, 1 hour, LED 470 nm) is reported as “fluorescence emission was detected”; in the series on CL1-0 cancer cells [2] (0.5 μM, 1 hour, LED 470 nm), “fluorescence emission was detected”. Moreover, the “Numbers of cells required to distinguish cancer cells and normal cells” value with MRC-5 normal cells (0.1 μM/30 min) was 3,000 (M); with MRC-5 normal cells (0.5 μM/1 hr), 2,000 (M); in the series on CL1-0 cancer cells [2] (0.1 μM/30 min) it was 2,000 (C); in the series on CL1-0 cancer cells [2] (0.5 μM/1 hr), 1,000 (C); in the series with HeLa cancer cells (0.05 μM/1 hr) it was 3,000 (H); in the series on HeLa cancer cells (0.1 μM/1 hr), 2,000 (H). Further, the figures for the “Numbers of cells required to distinguish cancer cells and normal cells” value in the series on primary fibroblast (0.05 μM/1 hr) and with primary fibroblast (0.1 μM/1 hr) were 4,000 (F) and 2,000 (F), respectively. In addition, the “number of stained cells showing fluorescence” value in the series on CL1-0 cancer cells [3] was determined as 150.
